Paper PMC9329436, “Optimization of the 4-anilinoquin(az)oline scaffold as epidermal growth factor receptor (EGFR) inhibitors for chordoma utilizing a toxicology profiling assay platform” (Scientific Reports, 2022)
Read-outs that look alike come from different tables or passages of the source.

What was measured:
Type in all cases: biochemical
[1] = target: 320 wild-type protein kinases (Homo sapiens, UniProt P23458); conditions: JAK1 aa583-1154 wt, singlicate
From the text: (§1) Table S4. Profiling of two compounds at two concentrations against 320 wild-type protein kinases; singlicate measurement; Residual activities (% of control).

[2] = target: T1, 320 wild-type protein kinases (Homo sapiens, UniProt P29320); conditions: singlicate
T1 sequence (P29320 21-983): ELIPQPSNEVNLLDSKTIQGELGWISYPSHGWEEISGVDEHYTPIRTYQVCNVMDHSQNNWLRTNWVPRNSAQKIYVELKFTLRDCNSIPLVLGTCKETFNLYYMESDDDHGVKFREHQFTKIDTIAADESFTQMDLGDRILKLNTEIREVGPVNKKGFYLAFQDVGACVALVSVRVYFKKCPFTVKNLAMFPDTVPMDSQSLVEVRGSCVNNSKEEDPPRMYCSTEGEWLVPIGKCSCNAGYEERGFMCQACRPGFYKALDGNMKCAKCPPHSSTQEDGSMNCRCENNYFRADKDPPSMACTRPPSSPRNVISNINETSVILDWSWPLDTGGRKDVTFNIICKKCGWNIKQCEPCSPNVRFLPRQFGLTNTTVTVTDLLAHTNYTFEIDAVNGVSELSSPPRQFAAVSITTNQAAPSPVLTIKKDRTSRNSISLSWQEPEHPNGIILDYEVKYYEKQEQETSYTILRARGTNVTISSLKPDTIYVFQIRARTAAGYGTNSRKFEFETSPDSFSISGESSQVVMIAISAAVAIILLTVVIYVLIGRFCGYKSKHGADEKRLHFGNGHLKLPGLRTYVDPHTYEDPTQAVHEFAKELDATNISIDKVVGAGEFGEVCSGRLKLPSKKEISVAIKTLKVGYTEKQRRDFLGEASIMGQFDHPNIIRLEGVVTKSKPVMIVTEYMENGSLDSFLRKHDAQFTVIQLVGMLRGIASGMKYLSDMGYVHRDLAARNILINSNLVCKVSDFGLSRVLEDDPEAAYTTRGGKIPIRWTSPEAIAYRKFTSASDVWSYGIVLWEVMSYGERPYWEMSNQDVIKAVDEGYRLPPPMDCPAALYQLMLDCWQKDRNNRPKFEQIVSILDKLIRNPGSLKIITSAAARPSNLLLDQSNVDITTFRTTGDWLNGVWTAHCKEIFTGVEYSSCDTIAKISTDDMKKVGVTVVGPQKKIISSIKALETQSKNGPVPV
From the text: as §1

[3] = target: 320 wild-type protein kinases (Homo sapiens, UniProt P41240); conditions: CSK, singlicate
From the text: as §1

[4] = target: 320 wild-type protein kinases (Homo sapiens, UniProt Q06187); conditions: BTK, singlicate
From the text: as §1

[5] = target: 320 wild-type protein kinases (Homo sapiens, UniProt P07948); conditions: LYN, singlicate
From the text: as §1

[6] = target: T2, 320 wild-type protein kinases (Homo sapiens, UniProt Q96L34); conditions: singlicate
T2 sequence (Q96L34 1-752): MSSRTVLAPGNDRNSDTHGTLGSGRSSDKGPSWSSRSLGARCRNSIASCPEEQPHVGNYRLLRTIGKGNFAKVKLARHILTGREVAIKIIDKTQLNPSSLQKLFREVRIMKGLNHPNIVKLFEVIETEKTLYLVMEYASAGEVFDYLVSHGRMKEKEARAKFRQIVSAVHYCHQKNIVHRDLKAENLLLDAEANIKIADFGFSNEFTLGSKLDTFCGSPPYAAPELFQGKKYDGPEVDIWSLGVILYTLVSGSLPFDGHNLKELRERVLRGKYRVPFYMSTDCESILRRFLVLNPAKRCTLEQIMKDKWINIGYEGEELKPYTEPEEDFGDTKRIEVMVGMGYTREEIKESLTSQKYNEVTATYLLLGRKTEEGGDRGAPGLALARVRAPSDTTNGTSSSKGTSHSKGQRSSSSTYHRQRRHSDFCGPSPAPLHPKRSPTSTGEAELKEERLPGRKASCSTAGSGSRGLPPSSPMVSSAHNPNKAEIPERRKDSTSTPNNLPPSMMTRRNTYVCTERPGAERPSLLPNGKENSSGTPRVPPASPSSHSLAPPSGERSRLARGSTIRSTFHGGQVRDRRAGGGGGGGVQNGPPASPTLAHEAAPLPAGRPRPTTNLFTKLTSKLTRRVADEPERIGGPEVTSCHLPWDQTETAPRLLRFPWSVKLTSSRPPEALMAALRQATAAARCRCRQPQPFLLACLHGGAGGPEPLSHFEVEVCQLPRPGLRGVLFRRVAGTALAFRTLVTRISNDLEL
From the text: as §1

[7] = target: 320 wild-type protein kinases (Homo sapiens, UniProt Q13555); conditions: CAMK2G, singlicate
From the text: as §1

[8] = target: 320 wild-type protein kinases (Homo sapiens, UniProt Q7KZI7); conditions: singlicate
From the text: as §1

[9] = target: 320 wild-type protein kinases (Homo sapiens, UniProt P06213); conditions: INS-R, singlicate
From the text: as §1

Sequence of 320 wild-type protein kinases (Homo sapiens, UniProt Q7KZI7) (Q7KZI7 whole entry): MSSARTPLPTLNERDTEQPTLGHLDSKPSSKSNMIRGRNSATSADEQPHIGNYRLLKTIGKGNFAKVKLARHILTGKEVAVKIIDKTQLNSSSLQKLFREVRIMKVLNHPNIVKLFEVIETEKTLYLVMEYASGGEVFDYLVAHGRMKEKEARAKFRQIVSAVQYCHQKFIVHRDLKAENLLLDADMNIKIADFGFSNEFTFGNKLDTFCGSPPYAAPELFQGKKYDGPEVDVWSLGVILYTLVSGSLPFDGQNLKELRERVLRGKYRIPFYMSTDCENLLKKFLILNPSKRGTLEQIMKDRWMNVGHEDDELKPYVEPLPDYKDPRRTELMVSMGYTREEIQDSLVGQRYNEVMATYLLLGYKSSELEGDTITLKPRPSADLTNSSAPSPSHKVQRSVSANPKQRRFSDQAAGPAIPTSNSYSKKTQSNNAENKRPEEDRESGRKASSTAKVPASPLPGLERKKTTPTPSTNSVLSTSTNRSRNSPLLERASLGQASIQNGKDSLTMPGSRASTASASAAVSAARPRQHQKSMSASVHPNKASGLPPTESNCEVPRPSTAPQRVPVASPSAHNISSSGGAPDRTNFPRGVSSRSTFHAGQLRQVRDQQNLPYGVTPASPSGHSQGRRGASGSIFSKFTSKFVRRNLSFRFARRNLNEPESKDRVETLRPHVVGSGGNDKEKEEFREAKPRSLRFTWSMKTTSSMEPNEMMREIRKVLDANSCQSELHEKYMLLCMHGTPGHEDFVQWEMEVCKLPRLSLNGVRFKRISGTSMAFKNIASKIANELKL
Sequence of 320 wild-type protein kinases (Homo sapiens, UniProt Q06187) (Q06187 whole entry): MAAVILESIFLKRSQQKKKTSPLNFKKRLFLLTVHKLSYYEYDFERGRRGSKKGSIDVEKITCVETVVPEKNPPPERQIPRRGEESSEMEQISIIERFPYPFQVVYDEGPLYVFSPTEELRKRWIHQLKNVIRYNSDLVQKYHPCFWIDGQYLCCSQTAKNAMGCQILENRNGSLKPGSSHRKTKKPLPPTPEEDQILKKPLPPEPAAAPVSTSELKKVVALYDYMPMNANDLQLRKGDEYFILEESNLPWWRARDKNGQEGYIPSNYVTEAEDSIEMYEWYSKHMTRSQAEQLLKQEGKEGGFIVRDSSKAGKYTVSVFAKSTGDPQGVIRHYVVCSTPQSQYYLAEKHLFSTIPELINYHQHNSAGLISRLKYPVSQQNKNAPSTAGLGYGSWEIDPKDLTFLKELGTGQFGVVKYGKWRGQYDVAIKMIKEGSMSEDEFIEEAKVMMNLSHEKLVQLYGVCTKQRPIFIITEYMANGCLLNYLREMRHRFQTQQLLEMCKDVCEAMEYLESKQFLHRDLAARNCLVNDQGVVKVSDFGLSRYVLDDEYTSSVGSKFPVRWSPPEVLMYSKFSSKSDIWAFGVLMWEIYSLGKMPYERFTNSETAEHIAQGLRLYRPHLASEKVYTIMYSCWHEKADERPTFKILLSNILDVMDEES
Sequence of 320 wild-type protein kinases (Homo sapiens, UniProt P07948) (P07948 whole entry): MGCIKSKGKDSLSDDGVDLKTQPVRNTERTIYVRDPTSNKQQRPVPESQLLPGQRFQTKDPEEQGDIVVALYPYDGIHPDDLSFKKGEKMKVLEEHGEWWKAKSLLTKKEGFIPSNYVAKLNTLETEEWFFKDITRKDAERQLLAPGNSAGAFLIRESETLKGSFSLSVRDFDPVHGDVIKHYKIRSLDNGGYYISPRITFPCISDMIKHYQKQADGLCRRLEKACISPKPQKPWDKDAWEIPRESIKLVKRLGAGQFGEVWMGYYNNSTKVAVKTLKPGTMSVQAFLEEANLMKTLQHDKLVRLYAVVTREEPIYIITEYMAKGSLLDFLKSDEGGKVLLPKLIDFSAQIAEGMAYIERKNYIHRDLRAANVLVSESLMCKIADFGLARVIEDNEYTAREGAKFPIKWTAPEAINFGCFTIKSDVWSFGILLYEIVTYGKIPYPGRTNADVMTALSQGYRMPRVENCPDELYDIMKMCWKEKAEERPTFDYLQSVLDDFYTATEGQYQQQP
Sequence of 320 wild-type protein kinases (Homo sapiens, UniProt P41240) (P41240 whole entry): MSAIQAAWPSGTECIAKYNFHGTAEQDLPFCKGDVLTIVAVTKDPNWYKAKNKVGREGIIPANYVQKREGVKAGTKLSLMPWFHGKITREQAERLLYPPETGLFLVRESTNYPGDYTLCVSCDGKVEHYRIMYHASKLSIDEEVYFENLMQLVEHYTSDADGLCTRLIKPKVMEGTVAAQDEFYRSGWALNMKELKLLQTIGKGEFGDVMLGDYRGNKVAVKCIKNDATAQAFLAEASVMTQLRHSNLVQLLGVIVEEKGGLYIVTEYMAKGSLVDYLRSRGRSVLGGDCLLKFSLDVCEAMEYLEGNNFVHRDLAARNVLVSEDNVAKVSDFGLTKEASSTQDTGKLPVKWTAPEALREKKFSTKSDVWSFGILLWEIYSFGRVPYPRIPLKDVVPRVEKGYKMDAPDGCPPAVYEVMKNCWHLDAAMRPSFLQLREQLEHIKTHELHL
Sequence of 320 wild-type protein kinases (Homo sapiens, UniProt P23458) (P23458 whole entry, the tested form may be a part): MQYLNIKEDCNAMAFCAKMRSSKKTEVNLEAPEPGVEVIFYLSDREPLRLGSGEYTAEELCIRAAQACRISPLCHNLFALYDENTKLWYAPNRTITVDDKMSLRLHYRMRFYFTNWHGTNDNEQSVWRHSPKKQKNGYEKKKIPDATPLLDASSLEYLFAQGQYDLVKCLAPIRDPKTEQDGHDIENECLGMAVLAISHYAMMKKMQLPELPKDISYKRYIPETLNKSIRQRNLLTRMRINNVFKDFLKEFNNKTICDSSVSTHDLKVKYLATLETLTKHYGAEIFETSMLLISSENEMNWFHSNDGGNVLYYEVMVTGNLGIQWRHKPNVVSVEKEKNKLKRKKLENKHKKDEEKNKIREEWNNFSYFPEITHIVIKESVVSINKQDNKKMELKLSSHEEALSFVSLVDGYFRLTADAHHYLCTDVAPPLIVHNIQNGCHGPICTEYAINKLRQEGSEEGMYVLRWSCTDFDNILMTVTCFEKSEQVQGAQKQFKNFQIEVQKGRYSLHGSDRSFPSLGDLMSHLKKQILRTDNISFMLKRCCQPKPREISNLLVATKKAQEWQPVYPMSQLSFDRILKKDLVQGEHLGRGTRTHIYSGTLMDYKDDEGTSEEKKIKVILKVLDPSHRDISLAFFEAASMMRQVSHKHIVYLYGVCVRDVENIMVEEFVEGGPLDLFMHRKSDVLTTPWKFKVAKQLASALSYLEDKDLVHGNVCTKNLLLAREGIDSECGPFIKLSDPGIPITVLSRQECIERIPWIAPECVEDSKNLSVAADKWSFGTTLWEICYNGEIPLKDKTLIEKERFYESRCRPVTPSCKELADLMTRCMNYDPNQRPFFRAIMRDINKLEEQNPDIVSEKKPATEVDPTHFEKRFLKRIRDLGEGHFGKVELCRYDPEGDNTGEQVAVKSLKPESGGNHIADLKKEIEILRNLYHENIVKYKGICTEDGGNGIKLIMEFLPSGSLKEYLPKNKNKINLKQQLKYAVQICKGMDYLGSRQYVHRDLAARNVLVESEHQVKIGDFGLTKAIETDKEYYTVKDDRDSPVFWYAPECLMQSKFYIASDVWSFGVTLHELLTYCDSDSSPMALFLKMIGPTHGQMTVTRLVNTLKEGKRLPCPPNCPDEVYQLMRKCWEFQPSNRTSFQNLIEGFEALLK
Sequence of 320 wild-type protein kinases (Homo sapiens, UniProt Q13555) (Q13555 whole entry): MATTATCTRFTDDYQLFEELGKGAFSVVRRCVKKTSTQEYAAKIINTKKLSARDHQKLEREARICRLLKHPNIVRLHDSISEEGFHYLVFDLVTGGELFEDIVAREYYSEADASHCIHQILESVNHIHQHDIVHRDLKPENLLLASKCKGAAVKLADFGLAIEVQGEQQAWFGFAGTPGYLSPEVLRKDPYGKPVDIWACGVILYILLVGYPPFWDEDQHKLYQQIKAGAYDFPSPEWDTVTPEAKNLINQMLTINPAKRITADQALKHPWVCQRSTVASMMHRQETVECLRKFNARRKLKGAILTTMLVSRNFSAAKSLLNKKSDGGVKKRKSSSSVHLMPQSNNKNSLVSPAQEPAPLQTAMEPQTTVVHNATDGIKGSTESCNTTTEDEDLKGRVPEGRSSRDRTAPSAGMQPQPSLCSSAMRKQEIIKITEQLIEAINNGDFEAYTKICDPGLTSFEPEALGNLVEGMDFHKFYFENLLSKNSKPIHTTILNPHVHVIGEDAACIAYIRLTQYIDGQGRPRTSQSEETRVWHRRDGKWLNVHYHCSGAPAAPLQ

Compound	Residual activity ([1]; 1.0E-06 M)	Residual activity ([1]; 1.0E-07 M)	Residual activity ([2]; EPHA3, 1.0E-06 M)	Residual activity ([2]; EPHA3, 1.0E-07 M)	Residual activity ([3]; 1.0E-06 M)	Residual activity ([3]; 1.0E-07 M)	Residual activity ([4]; 1.0E-06 M)	Residual activity ([4]; 1.0E-07 M)	Residual activity ([5]; 1.0E-06 M)	Residual activity ([5]; 1.0E-07 M)	Residual activity ([6]; MARK4, 1.0E-06 M)	Residual activity ([6]; MARK4, 1.0E-07 M)	Residual activity ([7]; 1.0E-06 M)	Residual activity ([7]; 1.0E-07 M)	Residual activity ([8]; MARK2, 1.0E-06 M)	Residual activity ([8]; MARK2, 1.0E-07 M)	Residual activity ([9]; 1.0E-06 M)	Residual activity ([9]; 1.0E-07 M)
C#Cc1cc(Nc2ncnc3cc(I)ccc23)ccc1Cl [Compound 41]	90 % of control	98 % of control	119 % of control	118 % of control	92 % of control	110 % of control	100 % of control	103 % of control	89 % of control	103 % of control	114 % of control	111 % of control	93 % of control	118 % of control	114 % of control	104 % of control	96 % of control	105 % of control
C#Cc1cc(Nc2ncnc3cc(OC)c(OC)cc23)ccc1Cl [Compound 45]	102 % of control	111 % of control	111 % of control	128 % of control	92 % of control	106 % of control	65 % of control	100 % of control	62 % of control	94 % of control	115 % of control	110 % of control	91 % of control	116 % of control	90 % of control	103 % of control	82 % of control	97 % of control
